Measured values from patent US9958439B2, “Carbohydrate detection” (RICHTER LIFE SCIENCE DEVELOPMENT AB, priority 2012, dated 2018).
Where two headings read alike, the source gives them in different places.

What was measured:
[1] = for RFU change (Correlation analysis) / RFU change (Signal deviation with increasing [Carbohydrate]) / λmax change: 3 μM probe; for RFU change (Correlation analysis): probe-specific excitation λ, emission 545 nm; for RFU change (Signal deviation with increasing [Carbohydrate]) / λmax change: spectral analysis, Excitation 300-500, Emission 545; for carbohydrate can be detected and/or differentiated by the LCO: conclusion from change in signal magnitude and/or shift in λmax; for Gradient Parameters (gradient of regression line) / Linear relationship / Quality of Gradient: linear regression
In short: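 Each LCO probe at 3 μM was added to two-fold serial dilutions of carbohydrate in dH2O (10–0.039 mg/ml for β-1,3-glucan, cellulose, chitin; 5–0.019 mg/ml for the others), run in triplicate. Excitation spectra were scanned 300–500 nm with emission at 545 nm. Detection was a reproducible λmax and/or RFU shift versus negative control, with linear regression of RFU against concentration.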

[2] = for RFU change (Correlation analysis) / RFU change (Signal deviation with increasing [Carbohydrate]): 3 μM probe; for RFU change (Correlation analysis): probe-specific excitation λ, emission 545 nm; for RFU change (Signal deviation with increasing [Carbohydrate]): spectral analysis, Excitation 300-500, Emission 545; for Gradient Parameters (gradient of regression line) / Linear relationship / Quality of Gradient: linear regression
In short: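 LCO probes at 3 μM mixed with serial twofold carbohydrate dilutions in dH2O (10–0.039 or 5–0.019 mg/ml, depending on carbohydrate). Excitation scanned 300–500 nm, emission read at 545 nm; detection defined as reproducible shift in λmax and/or RFU relative to negative control, with linear regression of RFU against concentration.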

[3] = In short: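 LCO probes at 3 μM mixed with serial two-fold carbohydrate dilutions in water (10–0.039 or 5–0.019 mg/ml), run in triplicate. Excitation scanned 300–500 nm with emission at 545 nm; detection based on reproducible λmax or RFU shift against the no-carbohydrate control, with linear regression of RFU on concentration.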
[4] = for RFU change (Correlation analysis): probe-specific excitation λ, emission 545 nm
In short: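 LCO probes at 3 μM mixed with serial two-fold dilutions of carbohydrate in dH2O (10–0.039 or 5–0.019 mg/ml, depending on carbohydrate), in triplicate. Excitation scanned 300–500 nm or fixed per probe (λmax or lowest background), emission at 545 nm. Detection taken as reproducible λmax/RFU shift vs no-carbohydrate control; RFU regressed linearly on concentration.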

[5] = remark: listed apart in the source
In short: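 LCO probes (3 μM) were added to serial two-fold dilutions of carbohydrate suspensions in dH2O, with excitation scanned 300–500 nm and emission at 545 nm. Detection was a reproducible λmax and/or RFU change versus no-carbohydrate control. RFU was regressed linearly against concentration at the λmax or the lowest-background excitation.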

[6] = remark: listed apart in the source
In short: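 3 μM of each LCO probe was added to serial two-fold carbohydrate dilutions in water (10–0.039 or 5–0.019 mg/ml). Excitation spectra were scanned 300–500 nm with emission at 545 nm, in triplicate. Detection was defined as a reproducible shift in λmax and/or RFU versus negative control, with linear regression of RFU against concentration.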

[7] = β-1,3-glucan concentration vs RFU
[8] = glucose concentration vs RFU, linear regression
[9] = Cellulobiose 5-0.019 mg/ml, 3 μM probe, spectral analysis, Excitation 300-500, Emission 545
[10] = amylose concentration vs RFU, linear regression
[11] = sodium alginate concentration vs RFU, linear regression
[12] = Chondroitin Sulfate A 5-0.019 mg/ml, 3 μM probe, spectral analysis, Excitation 300-500, Emission 545
[13] = Chondroitin Sulfate A concentration vs RFU, linear regression

NCCCC[C@H](NC(=O)Cc1cc(-c2cccs2)sc1-c1ccc(-c2sc(-c3cccs3)cc2CC(=O)N[C@@H](CCCCN)C(=O)[O-])s1)C(=O)[O-].[Na+].[Na+] [pHTA-Lys, penta Hydrogen Thiophene Acetic acid Lysine]
47.7 ± 18.5: Gradient Parameters (gradient of regression line) [4, 10]
107.9 ± 16.4: Gradient Parameters (gradient of regression line) [1, 7]
48.4 ± 18.2: Gradient Parameters (gradient of regression line) ([2]; heparin concentration vs RFU)
Positive: Quality of Gradient ([1]; cellulose concentration vs RFU) | Quality of Gradient ([1]; chitin concentration vs RFU) | Quality of Gradient [1, 7] | Quality of Gradient ([2]; glycogen concentration vs RFU) | Quality of Gradient ([2]; heparin concentration vs RFU) | Quality of Gradient [4, 10] | Quality of Gradient [5, 11] | Quality of Gradient [6, 13]
Increases: RFU change (Correlation analysis) ([1]; Chitin 10-[…]) | RFU change (Signal deviation with increasing [Carbohydrate]) ([1]; Chitin 10-[…]) | RFU change (Correlation analysis) ([2]; Glycogen 5-0.019 mg/ml) | RFU change (Signal deviation with increasing [Carbohydrate]) ([2]; Glycogen 5-0.019 mg/ml) | RFU change (Correlation analysis) ([2]; Heparin 5-0.019 mg/ml) | RFU change (Signal deviation with increasing [Carbohydrate]) ([2]; Heparin 5-0.019 mg/ml) | RFU change (Correlation analysis) ([4]; Amylose 5-0.019 mg/ml, 3 μM probe) | RFU change (Signal deviation with increasing [Carbohydrate]) ([4]; Amylose 5-0.019 mg/ml, 3 μM probe, spectral analysis, Excitation 300-500, Emission 545) | RFU change (Correlation analysis) ([5]; Sodium alginate 5-0.019 mg/ml, 3 μM probe, probe-specific excitation λ, emission 545 nm) | RFU change (Signal deviation with increasing [Carbohydrate]) ([5]; Sodium alginate 5-0.019 mg/ml, 3 μM probe, spectral analysis, Excitation 300-500, Emission 545) | RFU change (Correlation analysis) ([6]; Chondroitin Sulfate A 5-0.019 mg/ml, 3 μM probe, probe-specific excitation λ, emission 545 nm)
Yes: Sensitivity ([1]; to cellulose) | Sensitivity ([1]; to chitin) | Sensitivity ([1]; to β-1,3-glucan) | Sensitivity ([2]; to glycogen) | Sensitivity ([2]; to heparin) | Sensitivity ([4]; to amylose) | Sensitivity ([5]; to sodium alginate) | Sensitivity ([6]; to Chondroitin Sulfate A)
55.4 ± 5.3: Gradient Parameters (gradient of regression line) [5, 11]
Redshift: λmax change ([1]; Cellulose 10-[…]) | λmax change ([1]; Chitin 10-[…])
No change: λmax change [4, 9] | λmax change [6, 12]
Horizontal: Quality of Gradient [3, 8] | Quality of Gradient ([4]; cellulobiose concentration vs RFU, linear regression)
291.8 ± 46.6: Gradient Parameters (gradient of regression line) ([1]; cellulose concentration vs RFU)
Unclear: RFU change (Correlation analysis) ([3]; Glucose 5-0.019 mg/ml, 3 μM probe, probe-specific excitation λ, emission 545 nm) | RFU change (Signal deviation with increasing [Carbohydrate]) ([3]; Glucose 5-0.019 mg/ml, 3 μM probe, spectral analysis, Excitation 300-500, Emission 545) | RFU change (Correlation analysis) ([4]; Cellulobiose 5-0.019 mg/ml, 3 μM probe) | RFU change (Signal deviation with increasing [Carbohydrate]) [4, 9]
Increase: RFU change (Correlation analysis) ([1]; Cellulose 10-[…]) | RFU change (Signal deviation with increasing [Carbohydrate]) ([1]; Cellulose 10-[…]) | RFU change (Correlation analysis) ([1]; β-1,3-glucan 10-[…])
43.6 ± 7.9: Gradient Parameters (gradient of regression line) ([2]; glycogen concentration vs RFU)
can be detected and/or differentiated: carbohydrate can be detected and/or differentiated by the LCO ([1]; Cellulose) | carbohydrate can be detected and/or differentiated by the LCO ([1]; Chitin) | carbohydrate can be detected and/or differentiated by the LCO ([1]; β-1,3-Glucan) | carbohydrate can be detected and/or differentiated by the LCO ([2]; Glycogen, conclusion from change in signal magnitude and/or shift in λmax) | carbohydrate can be detected and/or differentiated by the LCO ([4]; Amylose, conclusion from change in signal magnitude and/or shift in λmax) | carbohydrate can be detected and/or differentiated by the LCO ([5]; Sodium alginate, conclusion from change in signal magnitude and/or shift in λmax) | carbohydrate can be detected and/or differentiated by the LCO ([6]; Chondroitin sulfate A, conclusion from change in signal magnitude and/or shift in λmax)
194.8 ± 19.2: Gradient Parameters (gradient of regression line) [6, 13]
Decrease: RFU change (Signal deviation with increasing [Carbohydrate]) ([1]; β-1,3-glucan 10-[…])
23.6 ± 13.7: Gradient Parameters (gradient of regression line) [3, 8]
No: Sensitivity ([3]; to glucose) | Sensitivity ([4]; to cellulobiose)
273.8 ± 46.2: Gradient Parameters (gradient of regression line) ([1]; chitin concentration vs RFU)
Significant: Linear relationship ([1]; cellulose concentration vs RFU) | Linear relationship ([1]; chitin concentration vs RFU) | Linear relationship ([2]; glycogen concentration vs RFU) | Linear relationship ([2]; heparin concentration vs RFU) | Linear relationship [4, 10] | Linear relationship [5, 11] | Linear relationship [6, 13]
Decreases: RFU change (Signal deviation with increasing [Carbohydrate]) [6, 12]
